PubChem BioAssay (NCI)
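Protocol summary: plate cells (96-well), add compound at 5 concentrations, incubate 48 h, interpolate endpoints linearly. GI50 = concentration required for 50% inhibition of growth. TGI marks complete inhibition of growth.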

Columns and labels:
Test in all cases: NCI anticancer screen, dose series, 48 h
T-47D breast = tested on: T-47D breast
K-562 leukemia = tested on: K-562 leukemia
MOLT-4 leukemia = tested on: MOLT-4 leukemia
786-0 renal = tested on: 786-0 renal
SN12C renal = tested on: SN12C renal
ACHN renal = tested on: ACHN renal
A549 NSCLC = tested on: A549 NSCLC
MCF7 breast = tested on: MCF7 breast
HL-60(TB) leukemia = tested on: HL-60(TB) leukemia
U251 CNS = tested on: U251 CNS

SMILES	GI50 (T-47D breast) [µM]	TGI (T-47D breast) [µM]	GI50 (K-562 leukemia) [µM]	TGI (K-562 leukemia) [µM]	GI50 (MOLT-4 leukemia) [µM]	TGI (MOLT-4 leukemia) [µM]	GI50 (786-0 renal) [µM]	GI50 (SN12C renal) [µM]	TGI (SN12C renal) [µM]	GI50 (ACHN renal) [µM]	TGI (ACHN renal) [µM]	GI50 (A549 NSCLC) [µM]	TGI (A549 NSCLC) [µM]	GI50 (MCF7 breast) [µM]	TGI (MCF7 breast) [µM]	GI50 (HL-60(TB) leukemia) [µM]	TGI (HL-60(TB) leukemia) [µM]	GI50 (U251 CNS) [µM]	TGI (U251 CNS) [µM]	TGI (786-0 renal) [µM]
O=[N+]([O-])c1ccc(NC(c2ccccc2)c2ccc3cccnc3c2O)cc1 (centres undefined)	0.633	> 100	0.376	> 100	0.344	> 100	0.363	0.935	> 100	0.351	> 89.9	0.878	> 100	0.335	> 100	0.334	1.47	0.418	> 100	–
COc1ccc(CC2OC3(CCCCC3)CC3CCCCN32)cc1 (centres undefined)	–	> 100	–	> 100	–	> 100	–	–	> 100	–	> 100	–	> 100	–	> 100	–	> 100	–	> 100	> 100
CC(C)Cc1cc(-c2cccn2C)c(C#N)c(=O)[nH]1	> 100	> 100	> 100	> 100	22.5	> 100	> 100	> 100	> 100	> 100	> 100	> 100	> 100	> 100	> 100	45.8	> 100	> 100	> 100	> 100
c1ccc2c(c1)CCCc1nnc3nc4ccccc4n3c1-2	5.49	> 100	3.87	> 100	4.49	> 100	5.12	8.15	> 100	3.65	> 100	3.66	> 100	4.1	> 100	2.49	78.2	3.29	24.1	> 100
Cc1c(-c2c(F)cc(C(N)=O)c3[nH]c4c(c23)CC[C@H](C(C)(C)O)C4)cccc1-n1c(=O)c2cccc(F)c2n(C)c1=O	3.39	> 100	3.61	> 100	1.77	6.58	3.54	3.9	> 100	2.8	> 100	2.05	> 100	1.04	> 100	0.971	3.22	6.07	> 100	> 100
N/C(=N/O)NOCCC(N)C(=O)O (centres undefined)	> 100	> 100	> 100	> 100	> 100	> 100	> 100	> 100	> 100	> 100	> 100	> 100	> 100	> 100	> 100	> 100	> 100	> 100	> 100	> 100
O=C(Nc1cccc(Cl)c1)Nc1cc(C(F)(F)F)ccc1Cl	3.53	31.3	3.36	18.2	3.12	11.4	2.86	3.01	11.5	2.54	7.16	2.72	8.98	3.13	18.1	3.02	31.3	3.32	8.56	12
COc1ccc2c(c1)C(=O)CC(C(N)=O)C2 (centres undefined)	–	> 100	–	> 100	–	> 100	–	–	> 100	–	> 100	–	> 100	–	> 100	–	> 100	–	> 100	> 100
COc1cc(-c2cc(-c3ccc(Nc4nc(Nc5ccc(Cl)cc5)nc(Nc5ccc(Cl)cc5)n4)cc3)no2)cc(OC)c1OC	3.15	> 100	1.98	19.4	1.23	23.7	3.6	39.1	> 100	14.9	> 100	13.5	> 100	3	69.7	2.32	55.5	11.4	> 100	20.1
O=C1NC(=O)/C(=C/c2ccc3nccc(-c4ccncc4)c3c2)S1	0.0497	0.432	1.89	> 10	0.645	9.91	0.345	0.396	> 10	0.469	8.39	0.61	5.24	0.164	> 10	0.325	> 6.77	0.261	2.23	3.15
